# Publication PMC4457528, “Identification of Novel Small Molecule Inhibitors of Oncogenic RET Kinase” (PLoS ONE, 2015)
# Where two headings read alike, the source gives them in different places.
# What was measured:
# Assay in all cases: KinomeScan kinase panel, single concentration 10 µM
# Assay type in all cases: binding
# KinomeScan kinase panel [1] = target: T1, KinomeScan kinase panel (Homo sapiens, UniProt O94921); conditions: PFTK1, 10 µM
# T1 construct: purchased DiscoveRx (KinomeScan)
# KinomeScan kinase panel [2] = target: T2, KinomeScan kinase panel (Homo sapiens, UniProt P45984); conditions: JNK2, 10 µM
# T2 construct: purchased DiscoveRx (KinomeScan)
# KinomeScan kinase panel [3] = target: T3, KinomeScan kinase panel (Homo sapiens, UniProt P54764); conditions: EPHA4, 10 µM; read-out: score (%)
# T3 construct: purchased DiscoveRx (KinomeScan)
# KinomeScan kinase panel [4] = target: T4, KinomeScan kinase panel (Homo sapiens, UniProt Q99759); conditions: MAP3K3, 10 µM; read-out: score (%)
# T4 construct: purchased DiscoveRx (KinomeScan)
# T4 sequence (Q99759 1-626): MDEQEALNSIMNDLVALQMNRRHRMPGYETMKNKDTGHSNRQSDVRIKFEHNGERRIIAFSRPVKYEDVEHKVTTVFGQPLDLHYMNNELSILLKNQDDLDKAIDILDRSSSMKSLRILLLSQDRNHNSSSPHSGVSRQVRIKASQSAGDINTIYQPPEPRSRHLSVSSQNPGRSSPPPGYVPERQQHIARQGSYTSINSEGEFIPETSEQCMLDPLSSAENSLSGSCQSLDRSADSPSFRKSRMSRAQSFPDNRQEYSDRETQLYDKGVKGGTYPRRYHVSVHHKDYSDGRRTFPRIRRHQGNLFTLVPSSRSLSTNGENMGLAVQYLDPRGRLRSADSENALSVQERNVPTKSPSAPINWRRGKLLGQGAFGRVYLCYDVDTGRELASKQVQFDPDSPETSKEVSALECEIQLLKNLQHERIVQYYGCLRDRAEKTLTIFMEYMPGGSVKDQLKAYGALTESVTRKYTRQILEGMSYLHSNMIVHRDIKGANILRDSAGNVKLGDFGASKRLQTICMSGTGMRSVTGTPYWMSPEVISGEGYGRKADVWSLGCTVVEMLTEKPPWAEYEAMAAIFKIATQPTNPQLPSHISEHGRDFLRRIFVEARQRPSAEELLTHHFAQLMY
# KinomeScan kinase panel [5] = target: T5, KinomeScan kinase panel (Homo sapiens, UniProt P22607); conditions: FGFR3, 10 µM; read-out: score (%)
# T5 construct: purchased DiscoveRx (KinomeScan)
# KinomeScan kinase panel [6] = target: T6, KinomeScan kinase panel (Homo sapiens, UniProt Q86UX6); conditions: kinase YANK3; 10 µM; read-out: score (%)
# T6 construct: purchased DiscoveRx (KinomeScan)
# KinomeScan kinase panel [7] = target: T7, KinomeScan kinase panel (Homo sapiens, UniProt Q9P286); conditions: read-out: score (%)
# T7 construct: purchased DiscoveRx (KinomeScan)
# KinomeScan kinase panel [8] = target: T8, KinomeScan kinase panel (Homo sapiens, UniProt P54646); conditions: AMPK-alpha2, 10 µM; read-out: score (%)
# T8 construct: purchased DiscoveRx (KinomeScan)
# KinomeScan kinase panel [9] = target: T9, KinomeScan kinase panel (Homo sapiens, UniProt P54762); conditions: EPHB1, 10 µM; read-out: score (%)
# T9 construct: purchased DiscoveRx (KinomeScan)
# T9 sequence (P54762 18-984): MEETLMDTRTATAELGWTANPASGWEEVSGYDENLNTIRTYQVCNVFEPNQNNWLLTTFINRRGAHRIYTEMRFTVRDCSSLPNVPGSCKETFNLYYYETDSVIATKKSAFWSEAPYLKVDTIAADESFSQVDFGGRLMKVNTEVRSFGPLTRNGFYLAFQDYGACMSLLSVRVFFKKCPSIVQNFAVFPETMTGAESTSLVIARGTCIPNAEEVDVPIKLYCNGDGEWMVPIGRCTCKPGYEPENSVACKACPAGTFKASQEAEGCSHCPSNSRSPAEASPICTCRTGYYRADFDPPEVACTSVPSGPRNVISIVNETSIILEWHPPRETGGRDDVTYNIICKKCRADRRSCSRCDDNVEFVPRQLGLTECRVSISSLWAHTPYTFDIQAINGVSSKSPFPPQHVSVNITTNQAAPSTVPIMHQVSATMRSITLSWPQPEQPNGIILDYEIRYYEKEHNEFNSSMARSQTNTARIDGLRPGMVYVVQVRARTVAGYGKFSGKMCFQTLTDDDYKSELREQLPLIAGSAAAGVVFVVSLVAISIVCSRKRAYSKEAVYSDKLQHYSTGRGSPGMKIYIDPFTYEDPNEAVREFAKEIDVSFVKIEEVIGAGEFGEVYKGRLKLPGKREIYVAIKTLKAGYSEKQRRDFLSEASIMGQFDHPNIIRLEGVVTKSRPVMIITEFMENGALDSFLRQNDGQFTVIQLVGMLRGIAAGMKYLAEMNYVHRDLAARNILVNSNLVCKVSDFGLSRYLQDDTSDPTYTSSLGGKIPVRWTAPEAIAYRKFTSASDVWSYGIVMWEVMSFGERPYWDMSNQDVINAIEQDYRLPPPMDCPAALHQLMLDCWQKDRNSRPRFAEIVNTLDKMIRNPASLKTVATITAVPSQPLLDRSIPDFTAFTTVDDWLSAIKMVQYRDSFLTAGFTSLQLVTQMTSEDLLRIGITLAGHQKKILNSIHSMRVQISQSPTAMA
# T5 sequence (P22607 23-806): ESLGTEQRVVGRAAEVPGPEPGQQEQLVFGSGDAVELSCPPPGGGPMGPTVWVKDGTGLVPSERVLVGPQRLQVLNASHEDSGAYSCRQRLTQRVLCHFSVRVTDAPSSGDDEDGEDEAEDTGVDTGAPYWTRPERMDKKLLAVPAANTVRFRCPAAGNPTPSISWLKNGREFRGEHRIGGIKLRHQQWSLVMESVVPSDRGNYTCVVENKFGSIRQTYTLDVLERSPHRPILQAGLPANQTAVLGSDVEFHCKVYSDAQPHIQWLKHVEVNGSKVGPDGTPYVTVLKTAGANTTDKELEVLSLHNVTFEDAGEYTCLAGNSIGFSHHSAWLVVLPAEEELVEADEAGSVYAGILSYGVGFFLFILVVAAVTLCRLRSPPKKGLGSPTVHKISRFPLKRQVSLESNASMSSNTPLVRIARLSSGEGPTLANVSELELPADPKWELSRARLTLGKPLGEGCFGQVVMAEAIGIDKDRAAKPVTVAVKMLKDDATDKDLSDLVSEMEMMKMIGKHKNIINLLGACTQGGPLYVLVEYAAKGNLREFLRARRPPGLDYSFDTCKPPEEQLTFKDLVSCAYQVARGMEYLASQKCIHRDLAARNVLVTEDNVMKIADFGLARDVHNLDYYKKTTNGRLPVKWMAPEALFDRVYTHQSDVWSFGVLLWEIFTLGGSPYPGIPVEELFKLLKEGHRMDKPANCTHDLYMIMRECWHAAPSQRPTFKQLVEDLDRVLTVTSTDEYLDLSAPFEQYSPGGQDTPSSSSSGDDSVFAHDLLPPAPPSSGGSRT
# T7 sequence (Q9P286 whole entry): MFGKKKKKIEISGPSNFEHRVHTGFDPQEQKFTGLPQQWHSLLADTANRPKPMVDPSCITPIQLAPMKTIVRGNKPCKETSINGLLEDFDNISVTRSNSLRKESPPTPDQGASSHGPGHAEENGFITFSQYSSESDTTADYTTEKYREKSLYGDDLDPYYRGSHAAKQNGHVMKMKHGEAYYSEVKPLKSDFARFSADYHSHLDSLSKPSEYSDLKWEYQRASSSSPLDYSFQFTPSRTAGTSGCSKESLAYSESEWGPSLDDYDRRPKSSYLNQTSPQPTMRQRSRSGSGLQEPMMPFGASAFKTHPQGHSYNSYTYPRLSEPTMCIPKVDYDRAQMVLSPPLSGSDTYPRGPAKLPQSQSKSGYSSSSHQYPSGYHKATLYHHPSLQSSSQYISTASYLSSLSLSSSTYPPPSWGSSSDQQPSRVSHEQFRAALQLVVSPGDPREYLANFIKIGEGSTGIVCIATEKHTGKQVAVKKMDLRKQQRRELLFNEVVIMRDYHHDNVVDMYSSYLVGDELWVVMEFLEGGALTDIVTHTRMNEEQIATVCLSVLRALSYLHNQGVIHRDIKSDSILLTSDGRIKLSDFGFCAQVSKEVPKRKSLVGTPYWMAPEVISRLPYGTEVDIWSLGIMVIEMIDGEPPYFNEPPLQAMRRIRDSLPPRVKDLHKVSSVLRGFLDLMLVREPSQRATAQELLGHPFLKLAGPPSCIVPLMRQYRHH
# T8 sequence (P54646 whole entry): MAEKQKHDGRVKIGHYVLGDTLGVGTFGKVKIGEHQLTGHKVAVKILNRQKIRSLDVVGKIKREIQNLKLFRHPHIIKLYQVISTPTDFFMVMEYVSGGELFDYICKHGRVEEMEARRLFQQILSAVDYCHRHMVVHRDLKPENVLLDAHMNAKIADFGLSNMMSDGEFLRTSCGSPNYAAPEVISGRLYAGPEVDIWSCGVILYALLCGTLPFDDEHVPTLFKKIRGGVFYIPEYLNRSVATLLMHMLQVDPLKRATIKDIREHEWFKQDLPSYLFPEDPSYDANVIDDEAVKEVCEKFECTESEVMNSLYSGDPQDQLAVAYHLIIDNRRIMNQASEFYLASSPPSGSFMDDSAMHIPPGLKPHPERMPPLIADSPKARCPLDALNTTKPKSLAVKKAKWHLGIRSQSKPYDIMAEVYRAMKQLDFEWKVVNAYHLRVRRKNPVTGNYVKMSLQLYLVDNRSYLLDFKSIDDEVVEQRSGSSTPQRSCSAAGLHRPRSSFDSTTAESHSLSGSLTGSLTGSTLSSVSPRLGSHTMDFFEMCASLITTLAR
# T6 sequence (Q86UX6 whole entry): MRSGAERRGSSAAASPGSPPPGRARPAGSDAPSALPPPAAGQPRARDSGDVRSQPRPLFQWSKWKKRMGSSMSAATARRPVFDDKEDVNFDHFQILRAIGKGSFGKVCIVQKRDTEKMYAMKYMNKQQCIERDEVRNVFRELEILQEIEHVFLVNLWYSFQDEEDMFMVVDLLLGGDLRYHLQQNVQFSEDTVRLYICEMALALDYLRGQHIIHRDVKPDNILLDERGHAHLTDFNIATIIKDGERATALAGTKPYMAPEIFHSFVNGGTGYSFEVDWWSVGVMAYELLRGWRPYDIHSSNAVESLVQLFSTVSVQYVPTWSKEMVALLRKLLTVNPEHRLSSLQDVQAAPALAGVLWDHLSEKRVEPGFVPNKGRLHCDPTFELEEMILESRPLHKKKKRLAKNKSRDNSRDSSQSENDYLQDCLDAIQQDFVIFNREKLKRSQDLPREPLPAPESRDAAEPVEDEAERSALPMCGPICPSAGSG
# T2 sequence (P45984 whole entry): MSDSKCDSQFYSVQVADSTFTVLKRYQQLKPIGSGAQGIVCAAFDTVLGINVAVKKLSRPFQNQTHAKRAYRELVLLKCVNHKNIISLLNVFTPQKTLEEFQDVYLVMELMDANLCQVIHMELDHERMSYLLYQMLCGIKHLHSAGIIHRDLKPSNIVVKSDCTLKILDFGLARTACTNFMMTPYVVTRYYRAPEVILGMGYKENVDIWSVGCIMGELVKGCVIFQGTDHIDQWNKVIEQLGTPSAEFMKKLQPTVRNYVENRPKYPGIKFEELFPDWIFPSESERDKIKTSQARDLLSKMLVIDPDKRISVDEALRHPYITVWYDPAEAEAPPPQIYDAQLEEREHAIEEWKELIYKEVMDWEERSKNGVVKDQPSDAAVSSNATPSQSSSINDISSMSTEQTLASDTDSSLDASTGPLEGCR
# T1 sequence (O94921 whole entry): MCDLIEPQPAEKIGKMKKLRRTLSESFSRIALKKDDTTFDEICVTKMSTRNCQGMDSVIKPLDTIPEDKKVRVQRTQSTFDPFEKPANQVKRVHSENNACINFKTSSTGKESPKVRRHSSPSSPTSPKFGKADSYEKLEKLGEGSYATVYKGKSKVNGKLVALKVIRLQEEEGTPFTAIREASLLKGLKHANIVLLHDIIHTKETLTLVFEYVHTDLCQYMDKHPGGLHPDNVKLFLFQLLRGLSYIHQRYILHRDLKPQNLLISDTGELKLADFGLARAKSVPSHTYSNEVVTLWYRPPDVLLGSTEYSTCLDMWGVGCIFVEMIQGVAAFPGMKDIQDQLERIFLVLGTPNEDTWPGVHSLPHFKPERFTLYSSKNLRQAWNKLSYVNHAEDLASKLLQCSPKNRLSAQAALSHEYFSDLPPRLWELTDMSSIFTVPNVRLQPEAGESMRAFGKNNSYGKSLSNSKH
# T3 sequence (P54764 20-986): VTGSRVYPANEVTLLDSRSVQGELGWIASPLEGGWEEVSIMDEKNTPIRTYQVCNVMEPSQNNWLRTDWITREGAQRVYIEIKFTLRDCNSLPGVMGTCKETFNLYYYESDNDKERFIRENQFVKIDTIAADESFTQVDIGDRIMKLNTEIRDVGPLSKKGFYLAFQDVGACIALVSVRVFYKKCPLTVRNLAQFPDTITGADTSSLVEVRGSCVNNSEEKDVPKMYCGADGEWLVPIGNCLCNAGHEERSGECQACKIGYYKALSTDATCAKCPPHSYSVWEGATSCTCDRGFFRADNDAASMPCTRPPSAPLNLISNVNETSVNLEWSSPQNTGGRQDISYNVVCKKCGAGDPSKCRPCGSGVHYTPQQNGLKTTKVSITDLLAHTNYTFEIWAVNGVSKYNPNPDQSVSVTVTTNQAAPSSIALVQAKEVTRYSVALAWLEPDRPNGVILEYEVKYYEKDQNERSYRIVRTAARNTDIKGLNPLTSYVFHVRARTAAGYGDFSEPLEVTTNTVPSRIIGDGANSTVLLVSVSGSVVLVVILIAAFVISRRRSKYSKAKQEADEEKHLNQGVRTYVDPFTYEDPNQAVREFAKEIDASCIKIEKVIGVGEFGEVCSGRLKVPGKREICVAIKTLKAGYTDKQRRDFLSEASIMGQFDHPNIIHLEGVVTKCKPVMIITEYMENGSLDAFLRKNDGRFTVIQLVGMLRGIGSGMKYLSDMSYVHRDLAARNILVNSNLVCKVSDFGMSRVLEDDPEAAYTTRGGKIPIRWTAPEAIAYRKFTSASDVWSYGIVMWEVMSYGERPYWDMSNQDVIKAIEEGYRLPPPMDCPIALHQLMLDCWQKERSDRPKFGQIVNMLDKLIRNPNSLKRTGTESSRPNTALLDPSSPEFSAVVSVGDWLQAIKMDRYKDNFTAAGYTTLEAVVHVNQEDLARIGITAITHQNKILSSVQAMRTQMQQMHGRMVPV
"remaining binding at 10 µM (KinomeScan kinase panel [7]; PAK7/PAK5, 10 µM) [%]",SMILES,score (%) (KinomeScan kinase panel [1]),score (%) (KinomeScan kinase panel [2]),remaining binding at 10 µM (KinomeScan kinase panel [3]) [%],remaining binding at 10 µM (KinomeScan kinase panel [4]) [%],remaining binding at 10 µM (KinomeScan kinase panel [5]) [%],remaining binding at 10 µM (KinomeScan kinase panel [6]) [%],"remaining binding at 10 µM (KinomeScan kinase panel [7]; PAK7, 10 µM) [%]",remaining binding at 10 µM (KinomeScan kinase panel [8]) [%],remaining binding at 10 µM (KinomeScan kinase panel [9]) [%]
,CCN1CCN(Cc2ccc(NC(=O)c3ccc(C)c(NC(=O)c4cncc(-c5cccs5)c4)c3)cc2C(F)(F)F)CC1 [ALW-II-41-27],nb (Hits values higher than 30% were considered negative (no binding: nb)),0.25,0,0.25,> 30,> 30,> 30,> 30,0.15
> 30,"CCN1CCN(Cc2ccc(NC(=O)c3ccc(C)c(/C=C/c4cnc5[nH]ccc5c4Cl)c3)cc2C(F)(F)F)CC1 [HG-6-63-01, (E)-3-(2-(4-chloro-1H-pyrrolo[2,3-b]pyridin-5-yl)vinyl)-N-(4-((4-ethylpiperazin-1-yl)methyl)-3-(trifluoromethyl)phenyl)-4-methylbenzamide]",nb (Hits values higher than 30% were considered negative (no binding: nb)),1.1,0.55,4,2.4,> 30,,> 30,0.7
,CCN1CCN(Cc2ccc(NC(=O)c3ccc(C)c(C#Cc4cccnc4)c3)cc2C(F)(F)F)CC1 [XMD15-44],0.85%,0,0,1.4,0.3,75,83,18,0.5
